According to US6346518B1, “Itraconazole and saperconazole stereoisomers” (Janssen Pharmaceutica N.V., priority 1995, dated 2002):

Tests used:
[1] = solubility in artificial gastric juice; format: physicochemical; conditions: ambient temperature
Procedure: About 10 mg of either product was added to 100 ml artificial gastric juice (0.2 g NaCL+0.7 ml concentrated HCl diluted to 100 ml) at ambient temperature. The mixture was stirred and a sample was taken from each solution at regular intervals. The amount of dissolved active ingredient was determined following the procedure described in the previous example.

[2] = solubility in water in the absence or presence of 2-hydroxypropyl-β-cyclodextrin (saturated solutions, UV spectrometry); format: physicochemical; conditions: ambient temperature
Procedure: A 10 ml stock solution comprising 0, 2.5, 5, 7.5, 10, 20, 30 or 40% (weight by volume) 2-hydroxypropyl-β-cyclodextrin (M.S.=0.4) was put in a 20 ml tinted vial. To each vial there was added a quantity of itraconazole or saperconazole sufficient to yield a saturated solution. The vials were sonicated for 10 minutes and all vials were checked to ascertain that an undissolved remnant remained Where all the material had dissolved, another quantity of the material was added The vials were closed and protected from light by wrapping them in aluminum foil. The vials were then shaken in an appropriate apparatus. 24Hours later the vials were checked again to ascertain that an undissolved remnant of the material remained and where necessary a further quantity of the material was added. The vials were shaken for at least 72 hours and then allowed to stand until all undissolved material had precipitated. The vials were opened and the pH of the saturated solutions was measured. An aliquot of the supernatant solution was filtered and the amount of dissolved active ingredient was measured by UV spectrometry (255 nm), if necessary after diluting said aliquot to a concentration suitable for UV spectrometry.

[3] = cited from earlier work
Aspergillus spp. = conditions: compared with itraconazole; U.S. Pat. No. 4,916,134; cited from earlier work
[4] = 2-hydroxypropyl-β-cyclodextrin concentration 2.5%
[5] = 2-hydroxypropyl-β-cyclodextrin concentration 5%
[6] = 2-hydroxypropyl-β-cyclodextrin concentration 7.5%
[7] = 2-hydroxypropyl-β-cyclodextrin concentration 10%
[8] = 2-hydroxypropyl-β-cyclodextrin concentration 20%
[9] = 2-hydroxypropyl-β-cyclodextrin concentration 30%
[10] = 2-hydroxypropyl-β-cyclodextrin concentration 40%

Molecule | concentration of dissolved active ingredient ([1]; 1 h.) [mg/100 ml] | concentration of dissolved active ingredient ([1]; 2 h.) [mg/100 ml] | concentration of dissolved active ingredient ([1]; 3 h.) [mg/100 ml] | concentration of dissolved active ingredient ([1]; 4 h.) [mg/100 ml] | concentration of dissolved active ingredient ([1]; 6 h.) [mg/100 ml] | concentration of dissolved active ingredient ([1]; 26 h.) [mg/100 ml] | concentration of dissolved active ingredient ([1]; 46 h.) [mg/100 ml] | concentration of dissolved active ingredient ([1]; 51 h.) [mg/100 ml] | concentration of dissolved active ingredient ([1]; 69 h.) [mg/100 ml] | concentration in water [2, 4] [mg/100 ml] | concentration in water [2, 5] [mg/100 ml] | concentration in water [2, 6] [mg/100 ml] | concentration in water [2, 7] [mg/100 ml] | concentration in water [2, 8] [mg/100 ml] | concentration in water [2, 9] [mg/100 ml] | concentration in water [2, 10] [mg/100 ml] | solubility in water [3] | other results
(+)-[2S-[2α, 4α, 4(R)]1-4-[4-[4-[4-[[2-(2,4-dichlor triazol-1-ylmethyl)-1,3-dioxolan-4-yl]methoxy]phenyl]-1-piperazinyl]phenyl]-2,4-dihydro-2-(1-methylpropyl)-3H-1,2,4-triazol-3-one [Compound 3] | 0.32 | 0.69 | 1.09 | 1.41 | 1.94 | 3.93 | 5.08 | 5.39 | 6.36 | – | – | – | – | – | – | – | – | concentration of dissolved active ingredient ([1]; 5 min.): 0.005 mg/100 ml; concentration of dissolved active ingredient ([1]; 15 min.): 0.037 mg/100 ml; concentration of dissolved active ingredient ([1]; 30 min.): 0.15 mg/100 ml
(+)-[2R-[2α,4α, 4(R)]]-4-[4-[4-[4[[dichlorophenyl)-2-(1H-1,2,4-triazol-1-ylmethyl)-1,3-dioxolan-4-yl]methoxy]phenyl]-1-piperazinyl]phenyl]-2,4-dihydro-2-(1-methylpropyl)-3H-1,2,4-triazol-3-one [Compound 4] | – | – | – | – | – | – | – | – | – | 2.43 | 15.84 | 41.70 | 83.72 | 481 | 1166 | 2017 | – | –
(−)-[2S-[2α, 4α, 4(S)[[-4-[4-[4-[4-[[2-(2,4-dichlorophenyl-2(1H-1,2,4-triazol-1-ylmethyl)-1,3-dioxolan-4-yl]methoxy]phenyl]-1-piperazinyl]phenyl ]-2,4-dihydro-2-(1-methylpropyl)-3H-1,2,4-triazol-3-one [Compound 2] | – | – | – | – | – | – | – | – | – | 3.58 | 16.36 | 41.39 | 78.16 | 332 | 846 | 1720 | – | –
CCC(C)n1ncn(-c2ccc(N3CCN(c4ccc(OCC5COC(Cn6cncn6)(c6ccc(Cl)cc6Cl)O5)cc4)CC3)cc2)c1=O (racemic) [itraconazole, (±)-cis-4-[4-[4-[4-[[2-(2,4-dichlorophenyl)-2-(1H-1,2,4-triazol-1-ylmethyl)-1,3-dioxolan-4-yl]methoxy]phenyl]-1-piperazinylphenyl]-2,4-dihydro-2-(1-methyl-propyl)-3H-1,2,4-triazol-3-one] | 0.023 | 0.079 | 0.15 | 0.19 | 0.27 | 0.40 | 0.40 | 0.41 | 0.45 | 0.36 | 1.79 | 4.74 | 10.28 | 50 | 95 | 174 | only very sparingly soluble in water | –
CCC(C)n1ncn(-c2ccc(N3CCN(c4ccc(OCC5COC(Cn6cncn6)(c6ccc(F)cc6F)O5)cc4)CC3)cc2)c1=O (racemic) [saperconazole, (±)-cis-4-[4-[4-[4-[[2-(2,4-difluorophenyl)-2-(1H-2,4-triazol-1-yl-methyl)-1,3-dioxolan-4-yl]methoxylphenyl]-1-piperazinyl]-phenyl]-2,4-dihydro-2-(1-methylpropyl)-3H-1,2,4-triazol-3-one] | – | – | – | – | – | – | – | – | – | – | – | – | – | – | – | – | only very sparingly soluble in water | activity against Aspergillus spp. (Aspergillus spp.): improved activity against Aspergillus spp.
